Patent US9266876B2 (Actelion Pharmaceuticals Ltd., priority 2012, dated 2016)

Target: human CXCR3A (Homo sapiens (Human), UniProt P49682)
Assay: FLIPR assay
Format: cell-based
Settings: CHO-K1 cells expressing the human CXCR3A coupled to Galpha(16); CXCL10 agonist 20 nM; Fluo-4-AM fluorescence; mean values if determined several times
Experimental: The bioactivity of compounds is tested in a fluorometric imaging plate reader (FLIPR: Molecular Devices) using engineered CHO-K1 cells expressing the human CXCR3A coupled to a G protein (Galpha(16)). Cells are plated the day prior to bioassay in F12 medium supplemented with 10% FBS and G418 and hygromycin antibiotics to maintain recombinant selection. At the day of bioassay, cells are washed and dye loaded for one hour with Fluo-4-AM (Invitrogen) in Hanks Balanced Salt Solution (Invitrogen), buffered with 20 mM Hepes at pH 7.4 and sodium bicarbonate (0.015%), containing 5 mM probenecid. […] Cells are washed free of excess dye and 60 microliter of wash buffer is added. Stock solutions of test compounds are made up at a concentration of 10 mM in DMSO, and serially diluted in dilution buffer to concentrations required for inhibition dose response curves. After a 10 minute incubation period at 37° C., 10 microliters of each compound dilution are transferred from a compound plate to the plate containing the recombinant cells in the FLIPR instrument according to the manufacturer's instructions. Following basal readings, 10 microliter CXCL10 agonist at a concentration of 20 nM (from Peprotech) is added, again using the FLIPR instrument. Changes in fluorescence are monitored before and after addition of the test compounds. Emission peak values above base level after CXCL10 addition are exported after base line subtraction. The program XLfit is used to fit the data to a single site dose response curve and to calculate IC50 values.

human CXCR3A, sequence (P49682 whole entry): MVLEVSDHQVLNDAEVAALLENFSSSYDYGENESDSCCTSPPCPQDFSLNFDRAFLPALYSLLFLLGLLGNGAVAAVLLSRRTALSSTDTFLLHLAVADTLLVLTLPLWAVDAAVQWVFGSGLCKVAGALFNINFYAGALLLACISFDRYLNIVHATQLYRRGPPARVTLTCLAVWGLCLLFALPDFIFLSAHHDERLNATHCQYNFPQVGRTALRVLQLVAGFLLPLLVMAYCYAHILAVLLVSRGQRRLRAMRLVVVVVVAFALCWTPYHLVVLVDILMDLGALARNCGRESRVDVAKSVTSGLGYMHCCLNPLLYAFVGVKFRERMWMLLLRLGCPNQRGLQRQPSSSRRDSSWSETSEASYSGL

IC50	SMILES
48 nM	O=C(Cn1cnc2cccnc21)N1CCCN(c2scnc2-c2nc3ccccc3[nH]2)CC1 [Example 45, 1-{4-[4-(1H-Benzoimidazol-2-yl)-thiazol-5-yl]-[1,4]diazepan-1-yl}-2-imidazo[4,5-b]pyridin-3-yl-ethanone]
136 nM	COc1cccc2c1ccn2CC(=O)N1CCN(c2scnc2-c2nc3ccccc3[nH]2)CC1 [Example 52, 1-{4-[4-(1H-Benzoimidazol-2-yl)-thiazol-5-yl]-piperazin-1-yl}-2-(4-methoxy-indol-1-yl)-ethanone]
547 nM	O=C(Cn1ccc2cccnc21)N1CCN(c2sc(Cl)nc2-c2nc3ccccc3[nH]2)CC1 [Example 42, 1-{4-[4-(1H-Benzoimidazol-2-yl)-2-chloro-thiazol-5-yl]-piperazin-1-yl}-2-pyrrolo[2,3-b]pyridin-1-yl-ethanone]
2990 nM	O=C(Cn1cnc2cccnc21)N1CCN(c2ncsc2-c2nc3ccccc3[nH]2)CC1 [compound 114, 1-{4-[5-(1H-Benzoimidazol-2-yl)-thiazol-4-yl]-piperazin-1-yl}-2-imidazo[4,5-b]pyridin-3-yl-ethanone, reference compound]
13 nM	Cc1ccc2ccn(CC(=O)N3CCN(c4scnc4-c4nc5ccccc5[nH]4)CC3)c2n1 [Example 70, 1-{4-[4-(1H-Benzoimidazol-2-yl)-thiazol-5-yl]-piperazin-1-yl}-2-(6-methyl-pyrrolo[2,3-b]pyridin-1-yl)-ethanone]
18 nM	C[C@H]1CN(c2scnc2-c2nc3ccccc3[nH]2)CCN1C(=O)Cn1cnc2cccnc21 [Example 47, 1-{(S)-4-[4-(1H-Benzoimidazol-2-yl)-thiazol-5-yl]-2-methyl-piperazin-1-yl}-2-imidazo[4,5-b]pyridin-3-yl-ethanone]
448 nM	O=C(Cn1cnc2cccnc21)N1CCC(c2scnc2-c2nc3ccccc3[nH]2)CC1 [Example 48, 1-{4-[4-(1H-Benzoimidazol-2-yl)-thiazol-5-yl]-piperidin-1-yl}-2-imidazo[4,5-b]pyridin-3-yl-ethanone]
2 nM	C[C@@H]1CN(c2scnc2-c2nc3c(F)cccc3[nH]2)CCN1C(=O)Cn1cnc2cccnc21 [Example 97, 1-{(R)-4-[4-(4-Fluoro-1H-benzoimidazol-2-yl)-thiazol-5-yl]-2-methyl-piperazin-1-yl}-2-imidazo[4,5-b]pyridin-3-yl-ethanone]
4 nM	O=C(Cn1ccc2cccc(F)c21)N1CCN(c2scnc2-c2nc3ccccc3[nH]2)CC1 [Example 108, 1-{4-[4-(1H-Benzoimidazol-2-yl)-thiazol-5-yl]-piperazin-1-yl}-2-(7-fluoro-indol-1-yl)-ethanone]

More lines, now with the values behind:

SMILES	IC50
C[C@@H]1CN(c2scnc2-c2nc3cc(Cl)c(F)cc3[nH]2)CCN1C(=O)Cn1cnc2cccnc21 [Example 89, 1-{(R)-4-[4-(5-Chloro-6-fluoro-1H-benzoimidazol-2-yl)-thiazol-5-yl]-2-methyl-piperazin-1-yl}-2-imidazo[4,5-b]pyridin-3-yl-ethanone]	1 nM
Cn1c(=O)n(CC(=O)N2CCN(c3scnc3-c3nc4ccc(CO)cc4[nH]3)CC2)c2ccccc21 [Example 76, 1-(2-{4-[4-(6-Hydroxymethyl-1H-benzoimidazol-2-yl)-thiazol-5-yl]-piperazin-1-yl}-2-oxo-ethyl)-3-methyl-1,3-dihydro-benzoimidazol-2-one]	10 nM
O=C(Cc1cn2nc(Cl)ccc2n1)N1CCN(c2scnc2-c2nc3ccccc3[nH]2)CC1 [Example 8, 1-{4-[4-(1H-Benzoimidazol-2-yl)-thiazol-5-yl]-piperazin-1-yl}-2-(6-chloro-imidazo[1,2-b]pyridazin-2-yl)-ethanone]	392 nM
C[C@@H]1CN(c2scnc2-c2nc3ccccc3[nH]2)CCN1C(=O)Cc1c[nH]c2ccccc12 [Example 124, 1-{(R)-4-[4-(1H-Benzoimidazol-2-yl)-thiazol-5-yl]-2-methyl-piperazin-1-yl}-2-(1H-indol-3-yl)-ethanone]	10 nM
COc1cc2c(ccn2CC(=O)N2CCN(c3scnc3-c3nc4ccccc4[nH]3)CC2)cc1Cl [Example 62, 1-{4-[4-(1H-Benzoimidazol-2-yl)-thiazol-5-yl]-piperazin-1-yl}-2-(5-chloro-6-methoxy-indol-1-yl)-ethanone]	6 nM
O=C(Cn1ccc2ccc(C(F)(F)F)cc21)N1CCN(c2scnc2-c2nc3ccccc3[nH]2)CC1 [Example 54, 1-{4-[4-(1H-Benzoimidazol-2-yl)-thiazol-5-yl]-piperazin-1-yl}-2-(6-trifluoromethyl-indol-1-yl)-ethanone]	112 nM
COc1ccc2onc(CC(=O)N3CCN(c4scnc4-c4nc5ccccc5[nH]4)CC3)c2c1 [Example 12, 1-{4-[4-(1H-Benzoimidazol-2-yl)-thiazol-5-yl]-piperazin-1-yl}-2-(5-methoxy-benzo[d]isoxazol-3-yl)-ethanone]	314 nM
Cn1c(=O)n(CC(=O)N2CCN(c3scnc3-c3nc4c(Cl)cccc4[nH]3)CC2)c2ccccc21 [Example 29, 1-(2-{4-[4-(4-Chloro-1H-benzoimidazol-2-yl)-thiazol-5-yl]-piperazin-1-yl}-2-oxo-ethyl)-3-methyl-1,3-dihydro-benzoimidazol-2-one]	4 nM
C[C@@H]1CN(c2scnc2-c2nc3cc(Cl)c(C(F)(F)F)cc3[nH]2)CCN1C(=O)Cn1cnc2cccnc21 [Example 93, 1-{(R)-4-[4-(5-Chloro-6-trifluoromethyl-1H-benzoimidazol-2-yl)-thiazol-5-yl]-2-methyl-piperazin-1-yl}-2-imidazo[4,5-b]pyridin-3-yl-ethanone]	1 nM
C[C@@H]1CN(c2scnc2-c2nc3ccccc3[nH]2)CCN1C(=O)Cn1ccc2ncc(Cl)nc21 [Example 140, 1-{(R)-4-[4-(1H-Benzoimidazol-2-yl)-thiazol-5-yl]-2-methyl-piperazin-1-yl}-2-(3-chloro-pyrrolo[2,3-b]pyrazin-5-yl)-ethanone]	6 nM
Cc1nc2ccccn2c1CC(=O)N1CCN(c2scnc2-c2nc3ccccc3[nH]2)CC1 [Example 9, 1-{4-[4-(1H-Benzoimidazol-2-yl)-thiazol-5-yl]-piperazin-1-yl}-2-(2-methyl-imidazo[1,2-a]pyridin-3-yl)-ethanone]	90 nM
Cn1c(=O)n(CC(=O)N2CCN(c3scnc3-c3nc4c(O)cccc4[nH]3)CC2)c2ccccc21 [Example 112, 1-(2-{4-[4-(4-Hydroxy-1H-benzoimidazol-2-yl)-thiazol-5-yl]-piperazin-1-yl}-2-oxo-ethyl)-3-methyl-1,3-dihydro-benzoimidazol-2-one]	10 nM
O=C1CCN(CC(=O)N2CCN(c3scnc3-c3nc4ccccc4[nH]3)CC2)c2ccccc21 [Example 107, 1-(2-{4-[4-(1H-Benzoimidazol-2-yl)-thiazol-5-yl]-piperazin-1-yl}-2-oxo-ethyl)-2,3-dihydro-1H-quinolin-4-one]	78 nM
C[C@@H]1CN(c2scnc2-c2nc3c(F)c(F)ccc3[nH]2)CCN1C(=O)Cn1cnc2cccnc21 [Example 90, 1-{(R)-4-[4-(4,5-Difluoro-1H-benzoimidazol-2-yl)-thiazol-5-yl]-2-methyl-piperazin-1-yl}-2-imidazo[4,5-b]pyridin-3-yl-ethanone]	2 nM
C[C@@H]1CN(c2scnc2-c2nc3ccccc3[nH]2)CCN1C(=O)Cc1ccc2cccnc2c1 [Example 120, 1-{(R)-4-[4-(1H-Benzoimidazol-2-yl)-thiazol-5-yl]-2-methyl-piperazin-1-yl}-2-quinolin-7-yl-ethanone]	16 nM
C[C@@H]1CN(c2scnc2-c2nc3c(F)c(F)ccc3[nH]2)CCN1C(=O)Cn1ccc2cccnc21 [Example 28, 1-{(R)-4-[4-(4,5-Difluoro-1H-benzoimidazol-2-yl)-thiazol-5-yl]-2-methyl-piperazin-1-yl}-2-pyrrolo[2,3-b]pyridin-1-yl-ethanone]	1 nM
C[C@@H]1CN(c2scnc2-c2nc3ccccc3[nH]2)CCN1C(=O)CN1C(=O)C(=O)c2ccccc21 [Example 157, 1-(2-{(R)-4-[4-(1H-Benzoimidazol-2-yl)-thiazol-5-yl]-2-methyl-piperazin-1-yl}-2-oxo-ethyl)-1H-indole-2,3-dione]	4 nM
Cc1ccc2onc(CC(=O)N3CCN(c4scnc4-c4nc5ccccc5[nH]4)C[C@H]3C)c2c1 [Example 131, 1-{(R)-4-[4-(1H-Benzoimidazol-2-yl)-thiazol-5-yl]-2-methyl-piperazin-1-yl}-2-(5-methyl-benzo[d]isoxazol-3-yl)-ethanone]	8 nM
COc1ccc2[nH]c(-c3ncsc3N3CCN(C(=O)Cn4c(=O)n(C)c5ccccc54)CC3)nc2c1 [Example 33, 1-(2-{4-[4-(5-Methoxy-1H-benzoimidazol-2-yl)-thiazol-5-yl]-piperazin-1-yl}-2-oxo-ethyl)-3-methyl-1,3-dihydro-benzoimidazol-2-one]	5 nM
Cc1nc(CC(=O)N2CCN(c3scnc3-c3nc4ccccc4[nH]3)CC2)cs1 [Example 7, 1-{4-[4-(1H-Benzoimidazol-2-yl)-thiazol-5-yl]-piperazin-1-yl}-2-(2-methyl-thiazol-4-yl)-ethanone]	516 nM
O=C(Cn1ccc(C(F)(F)F)n1)N1CCN(c2scnc2-c2nc3ccccc3[nH]2)CC1 [Example 5, 1-{4-[4-(1H-Benzoimidazol-2-yl)-thiazol-5-yl]-piperazin-1-yl}-2-(3-trifluoromethyl-pyrazol-1-yl)-ethanone]	33 nM
